Columns and labels:
[1] = system: Spodoptera littoralis; experiment: Activity against Spodoptera littoralis; assay type: in vivo; details: 72 h, 400 ppm spray on young soya plants, 1st instar caterpillars, 3 days, read-out: percentage reduction in the population and in the feeding damage (% activity)
Method: (§1) Young soya plants are sprayed with an aqueous emulsion spray mixture comprising 400 ppm of active ingredient and, after the spray coating has dried on, populated with 10 caterpillars (1st instar) of Spodoptera littoralis and introduced into a plastic container. 3 days later, the percentage reduction in the population and in the feeding damage (% activity) are determined by comparing the number of dead caterpillars and the feeding damage between the treated and untreated plants.

[2] = system: Plutella xylostella; experiment: Activity against Plutella xylostella; assay type: in vivo; details: 72 h, 400 ppm spray on young cabbage plants, 3rd instar caterpillars, 3 days, read-out: percentage reduction in the population and in the feeding damage (% activity)
Method: as §1, with “cabbage” for “soya”, “(3rd” for “(1st”, “Plutella xylostella” for “Spodoptera littoralis”

[3] = system: Diabrotica balteata; experiment: Activity against Diabrotica balteata (sprayed maize seedlings); assay type: in vivo; details: 144 h, 400 ppm spray on maize seedlings, 2nd instar larvae, 6 days, read-out: percentage reduction in the population (% activity)
Method: Maize seedlings are sprayed with an aqueous emulsion spray mixture comprising 400 ppm of active ingredient and, after the spray coating has dried on, populated with 10 larvae (2nd instar) of Diabrotica balteata and introduced into a plastic container. 6 days later, the percentage reduction in the population (% activity) is determined by comparing the number of dead larvae between the treated and untreated plants.

[4] = system: Myzus persicae; experiment: Systemic insecticide test for Myzus persicae; assay type: in vivo; details: roots of infected pea seedlings in 400 ppm spray mixture, 20°, 3 and 6 days, read-out: percentage reduction in the population (% activity)
Method: Pea seedlings are infected with Myzus persicae, and their roots are subsequently placed into a spray mixture comprising 400 ppm of active ingredient. The seedlings are then incubated at 20°. 3 and 6 days later, the percentage reduction in the population (% activity) is determined by comparing the number of dead aphids between the treated and untreated plants.

[5] = system: Heliothis virescens; experiment: Activity against Heliothis virescens (foliar application); assay type: in vivo; details: 144 h, 400 ppm spray on young soya plants, 1st instar caterpillars, 6 days, read-out: percentage reduction in the population and in the feeding damage (% activity)
Method: as §1, with “Heliothis virescens” for “Spodoptera littoralis”, “6” for “3”

[6] = system: Frankliniella occidentalis; experiment: Activity against Frankliniella occidentalis; assay type: in vivo; details: bean leaf discs (6 days) or bean plants (14 days); mixed population
Method: Bean leaf discs on agar in petri dishes or bean plants in a spray chamber are treated with diluted test solutions. After drying leaf discs are cut and placed in plastic cups on the surface of an agar layer and infested with mixed population. 6 days (leaf discs) or 14 days (plants) after the infestation, samples are checked for reduction of treated population and compared to the non treated population. In this test, compounds listed in Table P above show good activity. In particular compound T7.1.7 has an activity of over 80%.

## CC(C)NC(=O)c1cc2nsnc2c(Cl)c1NC(=O)c1cc(C(F)(F)F)nn1-c1ncccc1Cl [Compound T20.1.8, 7-chloro-6-{[2-(3-chloro-pyridin-2-yl)-5-trifluoromethyl-2H-pyrazole-3-carbonyl]-amino}-benzo[1,2,5]thiadiazole-5-carboxylic acid isopropylamide]
[1]
  inhibition at 400 ppm: > 80%
[2]
  inhibition at 400 ppm: > 80%

## CNC(=O)c1cc2nc(C(F)(F)F)ccc2c(Cl)c1NC(=O)c1cc(C(F)(F)F)nn1-c1ncccc1Cl [Compound T8.1.2, 5-Chloro-6-{[2-(3-chloro-pyridin-2-yl)-5-trifluoromethyl-2H-pyrazole-3-carbonyl]-amino}-2-trifluoromethyl-quinoline-7-carboxylic acid methyl amide]
[1]
  inhibition at 400 ppm: > 80%
other
  melting point: 233 to 237 °C
[2]
  inhibition at 400 ppm: > 80%
[3]
  inhibition at 400 ppm: > 80%

## CC(C)NC(=O)c1cc2ncn(C)c2c(Cl)c1NC(=O)c1cc(C(F)(F)F)nn1-c1ncccc1Cl [Compound T22.1.8, 7-chloro-6-{[2-(3-chloro-pyridin-2-yl)-5-trifluoromethyl-2H-pyrazole-3-carbonyl]-amino}-1-methyl-1H-benzoimidazole-5-carboxylic acid isopropylamide]
[1]
  inhibition at 400 ppm: > 80%
other
  melting point: 150 to 155 °C
[2]
  inhibition at 400 ppm: > 80%
[3]
  inhibition at 400 ppm: > 80%

## Cn1cnc2cc(C(=O)NCC3CC3)c(NC(=O)c3cc(C(F)(F)F)nn3-c3ncccc3Cl)c(Cl)c21 [Compound T22.1.14]
[1]
  inhibition at 400 ppm: > 80%
other
  melting point: 148 to 151 °C
[2]
  inhibition at 400 ppm: > 80%

## Cn1c(C2CC2)nc2cc(C(=O)NCC3CC3)c(NC(=O)c3cc(C(F)(F)F)nn3-c3ncccc3Cl)c(Cl)c21 [Compound T37.1.14]
[1]
  inhibition at 400 ppm: > 80%
other
  melting point: 233 to 235 °C
[2]
  inhibition at 400 ppm: > 80%

## Cc1nc2cc(C(=O)NC(C)C)c(NC(=O)c3cc(C(F)(F)F)nn3-c3ncccc3Cl)c(Cl)c2n1C [Compound T35.1.8, 7-chloro-6-{[2-(3-chloro-pyridin-2-yl)-5-trifluoromethyl-2H-pyrazole-3-carbonyl]-amino}-1,2-dimethyl-1H-benzoimidazole-5-carboxylic acid isopropylamide]
[4]
  inhibition at 400 ppm: > 80%
[1]
  inhibition at 400 ppm: > 80%
other
  melting point: 248 to 250 °C
[2]
  inhibition at 400 ppm: > 80%

## O=C(NCC1CC1)c1cc2[nH]cnc2c(Cl)c1NC(=O)c1cc(C(F)(F)F)nn1-c1ncccc1Cl [Compound T21.1.14]
other
  melting point: 198 to 201 °C
[2]
  inhibition at 400 ppm: > 80%

## CNC(=O)c1cc2nc(C(F)(F)F)ccc2c(C)c1NC(=O)c1cc(C(F)(F)F)nn1-c1ncccc1Cl [Compound T8.1.1, 6-{[2-(3-Chloro-pyridin-2-yl)-5-trifluoromethyl-2H-pyrazole-3-carbonyl]-amino}-5-methyl-2-trifluoromethyl-quinoline-7-carboxylic acid methyl amide]
[1]
  inhibition at 400 ppm: > 80%
other
  melting point: 227 to 230 °C
[2]
  inhibition at 400 ppm: > 80%
[3]
  inhibition at 400 ppm: > 80%

## CSC1=NC2C=C(C(=O)NCC3CC3)C(NC(=O)c3cc(C(F)(F)F)nn3-c3ncccc3Cl)=C(Cl)C2S1 (centres unmarked) [Compound T94.1.14, 7-chloro-6-{[2-(3-chloro-pyridin-2-yl)-5-trifluoromethyl-2H-pyrazole-3-carbonyl]-amino}-2-methylsulfanyl-3a,7a-dihydro-benzothiazole-5-carboxylic acid cyclopropylmethyl-amide]
[1]
  inhibition at 400 ppm: > 80%
other
  melting point: 221 to 223 °C
[2]
  inhibition at 400 ppm: > 80%

## O=C(NCC1CC1)c1cc2nsnc2c(Cl)c1NC(=O)c1cc(C(F)(F)F)nn1-c1ncccc1Cl [Compound T20.1.14, 7-chloro-6-{[2-(3-chloro-pyridin-2-yl)-5-trifluoromethyl-2H-pyrazole-3-carbonyl]-amino}-benzo[1,2,5]thiadiazole-5-carboxylic acid cyclopropylmethyl-amide]
[1]
  inhibition at 400 ppm: > 80%
[2]
  inhibition at 400 ppm: > 80%

## O=C(NCC1CC1)c1cc2nccnc2c(Cl)c1NC(=O)c1cc(C(F)(F)F)nn1-c1ncccc1Cl [Compound T1.1.14, 8-chloro-7-{[2-(3-chloro-pyridin-2-yl)-5-trifluoromethyl-2H-pyrazole-3-carbonyl]-amino}-quinoxaline-6-carboxylic acid cyclopropylmethyl-amide]
[1]
  inhibition at 400 ppm: > 80%
[2]
  inhibition at 400 ppm: > 80%

## Cc1nc2cc(C(=O)NC(C)C)c(NC(=O)c3cc(C(F)(F)F)nn3-c3ncccc3Cl)c(Cl)c2nc1C [Compound T19.1.8, 8-chloro-7-{[2-(3-chloro-pyridin-2-yl)-5-trifluoromethyl-2H-pyrazole-3-carbonyl]-amino}-2,3-dimethyl-quinoxaline-6-carboxylic acid isopropylamide]
[1]
  inhibition at 400 ppm: > 80%

## Cc1nc2cc(C(=O)NCC3CC3)c(NC(=O)c3cc(C(F)(F)F)nn3-c3ncccc3Cl)c(Cl)c2n1C [Compound T35.1.14]
[1]
  inhibition at 400 ppm: > 80%
other
  melting point: 233 to 235 °C

## CC(C)NC(=O)c1cc2nc(C3CC3)n(C)c2c(Cl)c1NC(=O)c1cc(C(F)(F)F)nn1-c1ncccc1Cl [Compound T37.1.8, 7-chloro-6-{[2-(3-chloro-pyridin-2-yl)-5-trifluoromethyl-2H-pyrazole-3carbonyl]-amino}-2-cyclopropyl-1-methyl-1H-benzoimidazole-5-carboxylic acid isopropylamide]
[1]
  inhibition at 400 ppm: > 80%
other
  melting point: 242 to 244 °C
[2]
  inhibition at 400 ppm: > 80%

## CNC(=O)c1cc2nc(C(F)(F)F)ccc2c(OC)c1NC(=O)c1cc(C(F)(F)F)nn1-c1ncccc1Cl [Compound T8.1.121, 6-{[2-(3-Chloro-pyridin-2-yl)-5-trifluoromethyl-2H-pyrazole-3-carbonyl]-amino}-5-methoxy-2-trifluoromethyl-quinoline-7-carboxylic acid methyl amide]
[1]
  inhibition at 400 ppm: > 80%
[2]
  inhibition at 400 ppm: > 80%

## CNC(=O)c1cc2nsnc2c(Cl)c1NC(=O)c1cc(C(F)(F)F)nn1-c1ncccc1Cl [Compound T20.1.2, 7-chloro-6-{[2-(3-chloro-pyridin-2-yl)-5-trifluoromethyl-2H-pyrazole-3-carbonyl]-amino}-benzo[1,2,5]thiadiazole-5-carboxylic acid methylamide]
[1]
  inhibition at 400 ppm: > 80%
[2]
  inhibition at 400 ppm: > 80%

## Cc1ccc2c(C)c(NC(=O)c3cc(C(F)(F)F)nn3-c3ncccc3Cl)c(C(=O)NC(C)C)cc2n1 [Compound T7.1.7]
[5]
  inhibition at 400 ppm: > 80%
[1]
  inhibition at 400 ppm: > 80%
[6]
  reduction of treated population (activity): over 80%
[2]
  inhibition at 400 ppm: > 80%

## CNC(=O)c1cc2[nH]cnc2c(Cl)c1NC(=O)c1cc(C(F)(F)F)nn1-c1ncccc1Cl
other
  melting point: 190 to 192 °C

## COC1=NC2C=C(C(=O)NCC3CC3)C(NC(=O)c3cc(C(F)(F)F)nn3-c3ncccc3Cl)=C(Cl)C2S1 (centres unmarked) [Compound T115.1.14, 7-chloro-6-{[2-(3-chloro-pyridin-2-yl)-5-trifluoromethyl-2H-pyrazole-3-carbonyl]-amino}-2-methoxy-3a,7a-dihydro-benzothiazole-5-carboxylic acid cyclopropylmethyl-amide]
[1]
  inhibition at 400 ppm: > 80%
[2]
  inhibition at 400 ppm: > 80%

## CNC(=O)c1cc2nc(C(F)(F)F)ccc2cc1NC(=O)c1cc(Br)nn1-c1ncccc1Cl [Compound T8.1.153, 6-{[5-Bromo-2-(3-chloro-pyridin-2-yl)-2H-pyrazole-3-carbonyl]-amino}-2-trifluoromethyl-quinoline-7-carboxylic acid methyl amide]
[1]
  inhibition at 400 ppm: > 80%
other
  melting point: 120 to 127 °C
[2]
  inhibition at 400 ppm: > 80%

## CC(C)NC(=O)c1cc2[nH]cnc2c(Cl)c1NC(=O)c1cc(C(F)(F)F)nn1-c1ncccc1Cl [Compound T21.1.8, 7-chloro-6-{[2-(3-chloro-pyridin-2-yl)-5-trifluoromethyl-2H-pyrazole-3-carbonyl]-amino}-3H-benzoimidazole-5-carboxylic acid isopropylamide]
[1]
  inhibition at 400 ppm: > 80%
other
  melting point: 200 to 203 °C
[2]
  inhibition at 400 ppm: > 80%

Source: patent US8580785B2, “Insecticides” (Syngenta Crop Protection LLC, priority 2005, dated 2013)
